For 48 molecules, IC50 results are on record in US9458176B2, “Tetrahydroimidazo(1,5-D)[1,4]oxazepine derivative” (Eisai R&D Management Co., Ltd., priority 2013, dated 2016).

The structures appear in SMILES notation.

What is called IC50 is the point on the concentration scale where inhibition reaches its midpoint. High values mean a need for much substance, low ones inhibition by little substance.

Sequence of human mGluR2 (Q14416 19-872): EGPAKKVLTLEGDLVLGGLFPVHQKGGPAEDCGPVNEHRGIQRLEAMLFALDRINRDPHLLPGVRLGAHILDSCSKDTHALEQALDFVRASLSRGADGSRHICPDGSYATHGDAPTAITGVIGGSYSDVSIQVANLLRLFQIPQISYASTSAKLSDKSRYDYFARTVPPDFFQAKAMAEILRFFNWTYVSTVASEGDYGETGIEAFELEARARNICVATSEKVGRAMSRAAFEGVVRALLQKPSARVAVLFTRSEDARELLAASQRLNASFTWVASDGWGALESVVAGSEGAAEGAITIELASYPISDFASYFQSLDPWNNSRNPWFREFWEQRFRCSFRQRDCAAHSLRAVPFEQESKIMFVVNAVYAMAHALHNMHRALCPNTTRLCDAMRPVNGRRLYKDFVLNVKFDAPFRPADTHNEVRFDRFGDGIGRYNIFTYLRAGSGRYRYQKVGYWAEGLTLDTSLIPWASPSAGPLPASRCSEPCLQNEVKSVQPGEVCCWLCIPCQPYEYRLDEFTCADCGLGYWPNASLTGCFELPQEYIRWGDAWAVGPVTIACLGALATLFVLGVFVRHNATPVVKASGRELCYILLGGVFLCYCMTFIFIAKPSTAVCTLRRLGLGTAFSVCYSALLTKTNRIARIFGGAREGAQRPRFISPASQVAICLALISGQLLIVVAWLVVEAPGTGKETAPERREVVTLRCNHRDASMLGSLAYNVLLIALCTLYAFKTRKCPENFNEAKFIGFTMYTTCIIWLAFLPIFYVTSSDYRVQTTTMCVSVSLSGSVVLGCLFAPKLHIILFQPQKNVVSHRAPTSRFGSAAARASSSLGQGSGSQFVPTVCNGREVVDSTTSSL

The first test concerns the target human mGluR2 (Homo sapiens (Human), UniProt Q14416). The test can be described thus: [35S]GTPγS binding assay (Affinity to mGluR2). The format is biochemical. The note with it: cell membrane fraction of HEK293 cells stably expressing human mGluR2; glutamic acid 10 μM. Here is the method:
(Preparation of Cell Membrane Fraction of HEK293 Cells Stably Expressing Human Metabotropic Glutamate Receptor 2 (mGluR2))
HEK293 cells stably expressing human mGluR2 and human glutamate transporter SLC1A3 were cultured in a Dulbecco's modified Eagle's medium with 10% fetal bovine serum (50 units/mL of penicillin, 50 μg/mL of streptomycin, 60 μg/mL of geneticin, 400 μg/mL of hygromycin B and 2 mM of glutamine) at 37° C. under 5% CO2. Confluent cell cultures were washed twice with PBS(−), and then scraped off with a cell scraper, and subjected to centrifugal separation at 4° C. and 1500 rpm for 5 minutes for collecting cells. The centrifuged sediment (cell pellet) was homogenized in a 20 mM HEPES buffer containing 10 mM EDTA (pH 7.4) by using sonicator and centrifuged at 4° C. and 1500×g for 30 minutes. The supernatant (soluble fraction) was subjected to the centrifugal separation at 4° C. and 40,000×g for 30 minutes, and thus, insoluble fraction was obtained. After additional centrifugally washing the obtained fraction with 20 mM HEPES buffer containing 10 mM EDTA (pH 7.4), the pellet was centrifugally suspended with a 20 mM HEPES buffer containing 0.1 mM EDTA, and the cell membrane fraction was obtained by the centrifugal separation at 4° C. and 40,000×g for 30 minutes. The thus obtained cell membrane fraction was suspended in a 20 mM HEPES buffer containing 0.1 mM EDTA in a protein concentration of 3 mg/mL, which was stored at −80° C.
([^35S]GTPγS Binding Assay)
The frozen cell membrane fraction prepared as described above was thawed before use, and the resultant was diluted with a buffer for a binding assay (final concentrations: 20 mM HEPES, 100 mM NaCl, 1 mM MgCl2, 3 μM GDP, 300 μg/mL saponin, 0.1% BSA). The compound of each example was added to a cell membrane fraction containing 1.8 to 3 μg/assay of membrane protein on a plate, followed by incubation at room temperature for 30 minutes. Thereafter, with glutamic acid (in a final concentration of 10 μM) added thereto, incubation was performed at room temperature for 15 minutes, and thereafter, [^35S]GTPγS (in a final concentration of 0.8 kBq) and 588 μg WGA-SPA beads were added thereto, followed by incubation at room temperature for 1 hour. After the incubation, the plate was subjected to the centrifugal separation at 2,500 rpm and room temperature, and then, membrane cell binding radioactivity was measured with a top count.
A [^35S]GTPγS binding amount obtained by performing the above-described reaction in the absence of glutamic acid was defined as nonspecific binding, and a difference from a [^35S]GTPγS binding amount obtained in the presence of glutamic acid was defined as specific binding. On the basis of ratios of inhibiting the specific binding at various concentrations of the compounds of the respective examples, inhibition curves were obtained. Concentrations of the compounds of the respective examples at which the specific [^35S]GTPγS binding amount was suppressed by 50% (IC50 values) were calculated on the basis of the inhibition curves and shown in Tables 8 and 9.
(GTPγS resists hydrolysis and so accumulates on activated G proteins.)
The molecule `Cc1cc(-c2nc(-c3ccc(OC(C)C)c(Cl)c3)n3c2CCO[C@H](C)C3)cc(C)n1` [Example 35, (R)-3-(3-chloro-4-isopropoxyphenyl)-1-(2,6-dimethylpyridin-4-yl)-6-methyl-5,6,8,9-tetrahydroimidazo[1,5-d][1,4]oxazepine] registered an IC50 of 2.7 nM.

`COc1cc(-c2nc(-c3cc(C)nc(C)c3)c3n2C[C@@H](CF)OCC3)ccc1C` [Example 71] came in with an IC50 of 18.9 nM.

As for `Cc1cc(-c2nc(-c3ccc(OC(F)(F)F)cc3)n3c2CCO[C@H](C)C3)cc(C)n1` [Example 51], the IC50 was found to be 7.8 nM.

With `COc1cc(-c2nc(-c3cc(C)nc(C)c3)c3n2CCOCC3)ccc1OC(F)(F)F` [Example 117], the IC50 stood at 22 nM.

With `COc1ccc(-c2nc(-c3cc(C)nc(C)c3)c3n2C[C@@H](C)OCC3)cc1Cl` [Example 33, (R)-3-(3-chloro-4-methoxyphenyl)-1-(2,6-dimethylpyridin-4-yl)-6-methyl-5,6,8,9-tetrahydroimidazo[1,5-d][1,4]oxazepine], the IC50 worked out at 5 nM.

Turning to `COc1cc(-c2nc(-c3cc(C)nc(C(F)F)c3)c3n2C[C@@H](CF)OCC3)ccc1C` [Example 81], the IC50 stood at 7.1 nM.

For `Cc1cc(-c2nc(-c3ccc(F)c(Cl)c3)n3c2CCO[C@H](C)C3)cc(C)n1` [Example 138], the IC50 turned out to be 21.2 nM.

The molecule `Cc1cc(-c2nc(-c3ccc(Cl)c(C(F)(F)F)c3)n3c2CCOCC3)cc(C)n1` [Example 108] displayed an IC50 of 19.2 nM.

`COc1cc(-c2nc(-c3ccnc(C)c3)c3n2C[C@@H](CF)OCC3)ccc1C(F)(F)F` [Example 41, (S)-6-(fluoromethyl)-3-(3-methoxy-4-(trifluoromethyl)phenyl)-1-(2-methylpyridin-4-yl)-5,6,8,9-tetrahydroimidazo[1,5-d][1,4]oxazepine] yielded an IC50 of 4.1 nM.

The molecule `Cc1cc(-c2nc(-c3ccc(F)c(OCC4CC4)c3)n3c2CCO[C@H](C)C3)cc(C)n1` [Example 6, (R)-3-(3-cyclopropylmethoxy-4-fluorophenyl)-1-(2,6-dimethylpyridin-4-yl)-6-methyl-5,6,8,9-tetrahydroimidazo[1,5-d][1,4]oxazepine] displayed an IC50 of 13 nM.

`COc1cc(-c2nc(-c3cc(C)nc(CF)c3)c3n2C[C@@H](C)OCC3)ccc1Cl` [Example 13, (R)-3-(4-chloro-3-methoxyphenyl)-1-(2-(fluoromethyl)-6-methylpyridin-4-yl)-6-methyl-5,6,8,9-tetrahydroimidazo[1,5-d][1,4]oxazepine]: the IC50 came to 5.7 nM.

In the case of `CC[C@@H]1Cn2c(-c3ccc(Cl)c(OC)c3)nc(-c3cc(C)nc(C)c3)c2CCO1` [Example 77], the IC50 stood at 11.5 nM.

The molecule `COc1cc(-c2nc(-c3cc(C)nc(C)c3)c3n2C[C@@H](C)OCC3)ccc1F` [Example 136] returned an IC50 of 33.9 nM.

The molecule `Cc1cc(-c2nc(-c3ccc(Cl)c(OC(F)(F)F)c3)n3c2CCO[C@H](C)C3)cc(C)n1` [Example 68] returned an IC50 of 13.2 nM.

For the molecule `Cc1cc(-c2nc(-c3ccc(Cl)c(C(F)(F)F)c3)n3c2CCO[C@H](C)C3)cc(C)n1` [Example 140], the IC50 amounted to 5.7 nM.

`Cc1cc(-c2nc(-c3ccc(OC(F)(F)F)c(C#N)c3)n3c2CCOCC3)cc(C)n1` [Example 116]: the IC50 was 33.8 nM.

As for `Cc1cc(-c2nc(-c3ccc(C(F)(F)F)c(Cl)c3)n3c2CCO[C@H](C)C3)cc(C)n1` [Example 129], the IC50 worked out at 15.7 nM.

`Cc1cc(-c2nc(-c3ccnc(F)c3)c3n2CCOCC3)ccc1OC(F)(F)F` [Example 115] returned an IC50 of 61.7 nM.

Consider `COc1ccc(-c2nc(-c3cc(C)nc(C)c3)c3n2C[C@@H](C)OCC3)cc1C` [Example 18, (R)-1-(2,6-dimethylpyridin-4-yl)-3-(4-methoxy-3-methylphenyl)-6-methyl-5,6,8,9-tetrahydroimidazo[1,5-d][1,4]oxazepine], for which the IC50 amounted to 12.3 nM.

With `Cc1cc(-c2nc(-c3ccc(Cl)c(C)c3)n3c2CCO[C@H](C)C3)ccn1` [Example 54], the IC50 worked out at 19.4 nM.

`Cc1cc(-c2nc(-c3ccc(F)c(OCC(F)(F)F)c3)n3c2CCOCC3)cc(C)n1` [Example 93]: the half-inhibitory concentration (IC50) was 28.7 nM.

Consider `Cc1cc(-c2nc(-c3ccc(C(F)(F)F)c(F)c3)n3c2CCO[C@H](C)C3)cc(C)n1` [Example 134], for which the IC50 turned out to be 27.8 nM.

Take `C[C@@H]1Cn2c(-c3ccc(OC(F)(F)F)cc3)nc(-c3ccnc(CF)c3)c2CCO1` [Example 85]: the IC50 came to 29.7 nM.

For `Cc1cc(-c2nc(-c3ccc(Cl)c(C)c3)n3c2CCOCC3)cc(C)n1` [Example 110], the IC50 turned out to be 64.2 nM.

The molecule `Cc1cc(-c2nc(-c3ccc(Cl)c(Cl)c3)n3c2CCO[C@H](C)C3)cc(C)n1` [Example 65] yielded an IC50 of 14 nM.

Molecule `Cc1cc(-c2nc(-c3ccc(Cl)c(C(F)F)c3)n3c2CCO[C@H](C)C3)cc(C)n1` [Example 131] came in with an IC50 of 25.5 nM.

Molecule `COc1cc(-c2nc(-c3cc(C)nc(CF)c3)c3n2C[C@@H](CF)OCC3)ccc1Cl` [Example 91] had an IC50 of 16.1 nM.

`Cc1cc(-c2nc(-c3ccc(Cl)c(C#N)c3)n3c2CCO[C@H](C)C3)cc(C)n1` [Example 130] registered an IC50 of 26 nM.

The same test, now with this note: cell membrane fraction of HEK293 cells stably expressing human mGluR2; glutamic acid 10 μM; inhibition of specific [35S]GTPγS binding.
For the molecule `CCc1ccc(-c2nc(-c3cc(C)nc(C)c3)c3n2C[C@@H](C)OCC3)cc1OCC1CC1` [Example 222], the IC50 was 17.2 nM.

As to `Cc1cc(-c2nc(-c3ccc(F)c(Cl)c3)n3c2CCO[C@H](CF)C3)cc(C)n1` [Example 171], the IC50 amounted to 26.7 nM.

The molecule `Cc1cc(-c2nc(-c3ccc(OC(F)(F)F)c(F)c3)n3c2CCO[C@H](C)C3)cc(CF)n1` [Example 206] had an IC50 of 18.7 nM.

As for `Cc1cc(-c2nc(-c3ccc(OC(F)F)c(CO)c3)n3c2CCO[C@H](C)C3)ccn1` [Example 237], the IC50 worked out at 30.3 nM.

For `Cc1cc(-c2nc(-c3ccc(F)c(C(F)(F)F)c3)n3c2CCO[C@H](CF)C3)ccn1` [Example 174], the IC50 is 24.3 nM.

In turn, `COc1cc(-c2nc(-c3cc(C)nc(C(F)F)c3)c3n2C[C@@H](C)OCC3)ccc1C(F)F` [Example 189] came in with an IC50 of 15.1 nM.

`Cc1cc(-c2nc(-c3ccc(OC(F)(F)F)c(F)c3)n3c2CCO[C@H](CF)C3)cc(C)n1` [Example 165] returned an IC50 of 9.4 nM.

The molecule `Cc1cc(-c2nc(-c3ccc(OC(F)(F)F)c(CO)c3)n3c2CCO[C@H](C)C3)ccn1` [Example 230] had an IC50 of 19.8 nM.

On to `COc1cc(-c2nc(-c3cc(C)nc(C)c3)c3n2C[C@@H](CF)OCC3)ccc1OC(F)F` [Example 163], for which the IC50 turned out to be 15.8 nM.

`Cc1cc(-c2nc(-c3ccc(C(F)(F)F)cc3)n3c2CCO[C@H](C)C3)cc(C)n1` [Example 142] gave a half-maximal inhibitory concentration (IC50) of 20.2 nM.

Molecule `COc1cc(-c2nc(-c3cc(C)nc(C(F)F)c3)c3n2C[C@@H](CF)OCC3)ccc1Cl` [Example 176] gave an IC50 of 38.8 nM.

The molecule `Cc1cc(-c2nc(-c3ccc(F)c(C(F)(F)F)c3)n3c2CCO[C@H](C)C3)ccn1` [Example 151] showed an IC50 of 26.4 nM.

`Cc1cc(-c2nc(-c3ccc(OC(F)(F)F)c(C)c3)n3c2CCO[C@H](CF)C3)ccn1` [Example 162] came in with an IC50 of 5 nM.

As for `Cc1cc(-c2nc(-c3ccc(Cl)c(OC(F)F)c3)n3c2CCOCC3)cc(C)n1` [Example 212], the IC50 came to 72.5 nM.

Regarding `Cc1cc(-c2nc(-c3ccc(F)c(Cl)c3)n3c2CCO[C@H](CF)C3)ccn1` [Example 172], the IC50 was determined as 38.3 nM.

For the molecule `Cc1cc(-c2nc(-c3ccc(OC(F)(F)F)c(F)c3)n3c2CCO[C@H](CF)C3)cc(CF)n1` [Example 202], the IC50 turned out to be 14 nM.

The molecule `Cc1cc(-c2nc(-c3ccc(C)c(OCC4CC4)c3)n3c2CCO[C@H](C)C3)ccn1` [Example 224] had an IC50 of 50.4 nM.

In turn, `COc1cc(-c2nc(-c3ccnc(C)c3)c3n2C[C@@H](C)OCC3)ccc1OC(F)F` [Example 149] registered an IC50 of 18.9 nM.

`Cc1cc(-c2nc(-c3ccc(C(F)F)c(Cl)c3)n3c2CCO[C@H](CF)C3)cc(C)n1` [Example 197] gave an IC50 of 15.1 nM.

Regarding `Cc1cc(-c2nc(-c3ccc(OC4CC4)c(Cl)c3)n3c2CCO[C@H](C)C3)ccn1` [Example 159], the IC50 came out at 5 nM.
